Experimental data: patent US20130029967A1, “Fused Imidazo [3,2 - D] Pyrazines as P13 Kinase Inhibitors” (Centro Nacional de Investigaciones Oncologicas (CNIO), priority 2009, published 2013)
Where two headings read alike, the source gives them in different places.

How the values were obtained:
PI3K (p110α/p85α) = molecular target: T1, PI3K (p110α/p85α) (Homo sapiens, UniProt P42336); experiment: PI3K activity assay (ADP Hunter Plus); assay type: biochemical; conditions: PI3Kα
T1 construct: purchased Carna Biosciences 07CBS-0402A
Procedure: The kinase activity was measured by using the commercial ADP Hunter™ Plus assay available from DiscoveRx (#33-016), which is a homogeneous assay to measure the accumulation of ADP, a universal product of kinase activity. […] Reaction was carried out for 1 hour at 25° C. Reagent A and B were sequentially added to the wells and plates were incubated for 30 min at 37° C. […] Values were normalized against the control activity included for each enzyme (i.e., 100% PI3 kinase activity, without compound). These values were plot against the inhibitor concentration and were fit to a sigmoid dose-response curve by using the Graphed software.

[1] = system: phospho-AKT (Ser473) in Osteosarcoma U2OS cells; experiment: PI3K cellular activity, ELISA (phospho-AKT Ser473); assay type: cell-based; conditions: Homo sapiens, cellular p-AKT
Procedure: Cell culture: The cell lines were obtained from the American Type Culture Collection (ATCC). U2OS (human osteosarcoma) was cultured in Dulbecco's modified Eagle's medium (DMEM). PC3 (human prostate carcinoma), MCF7 (human breast cardinoma), HCT116 (human colon carcinoma), […], U251 (human glyoblastoma) were grown in RPMI. All media were supplemented with 10% fetal bovine serum (FBS) (Sigma) and antibiotics-antimycotics. Cell were maintained in a humidified incubator at 37° C. with 5% CO2 and passaged when confluent using trypsin/EDTA.
Activity was measured as endogenous levels of phospho-AKT (Ser473) protein. Osteosarcoma U2OS cells were plated in 96 Poly-D-Lysine coating tissue culture plates (18.000 cells/well). After the treatment with serial dilutions of the compound during 3 h, the cells were fixed directly in the wells with 4% paraformaldehide. After fixing, individual wells went through the same series of steps used for a conventional immunoblot: including blocking with 5% BSA, incubation with 1/1000 of primary antibody-AKT ([…]) in PBS containing 5% BSA at 4° C. overnight (Cell Signalling), washing and incubation with second antibody HRP-anti-mouse IgG for 1 h at RT (Amersham). After the addition of SuperSignal ELISA Femto maximum sensitivity chemiluminescent substrate (Pierce) the results were read in a luminescence plate reader (Victor).

[2] = quantitative results, read-out: PI3K α IC50
[3] = class symbols, read-out: PI3K α IC50 (semi-quantitative)

T1 sequence (P42336 whole entry): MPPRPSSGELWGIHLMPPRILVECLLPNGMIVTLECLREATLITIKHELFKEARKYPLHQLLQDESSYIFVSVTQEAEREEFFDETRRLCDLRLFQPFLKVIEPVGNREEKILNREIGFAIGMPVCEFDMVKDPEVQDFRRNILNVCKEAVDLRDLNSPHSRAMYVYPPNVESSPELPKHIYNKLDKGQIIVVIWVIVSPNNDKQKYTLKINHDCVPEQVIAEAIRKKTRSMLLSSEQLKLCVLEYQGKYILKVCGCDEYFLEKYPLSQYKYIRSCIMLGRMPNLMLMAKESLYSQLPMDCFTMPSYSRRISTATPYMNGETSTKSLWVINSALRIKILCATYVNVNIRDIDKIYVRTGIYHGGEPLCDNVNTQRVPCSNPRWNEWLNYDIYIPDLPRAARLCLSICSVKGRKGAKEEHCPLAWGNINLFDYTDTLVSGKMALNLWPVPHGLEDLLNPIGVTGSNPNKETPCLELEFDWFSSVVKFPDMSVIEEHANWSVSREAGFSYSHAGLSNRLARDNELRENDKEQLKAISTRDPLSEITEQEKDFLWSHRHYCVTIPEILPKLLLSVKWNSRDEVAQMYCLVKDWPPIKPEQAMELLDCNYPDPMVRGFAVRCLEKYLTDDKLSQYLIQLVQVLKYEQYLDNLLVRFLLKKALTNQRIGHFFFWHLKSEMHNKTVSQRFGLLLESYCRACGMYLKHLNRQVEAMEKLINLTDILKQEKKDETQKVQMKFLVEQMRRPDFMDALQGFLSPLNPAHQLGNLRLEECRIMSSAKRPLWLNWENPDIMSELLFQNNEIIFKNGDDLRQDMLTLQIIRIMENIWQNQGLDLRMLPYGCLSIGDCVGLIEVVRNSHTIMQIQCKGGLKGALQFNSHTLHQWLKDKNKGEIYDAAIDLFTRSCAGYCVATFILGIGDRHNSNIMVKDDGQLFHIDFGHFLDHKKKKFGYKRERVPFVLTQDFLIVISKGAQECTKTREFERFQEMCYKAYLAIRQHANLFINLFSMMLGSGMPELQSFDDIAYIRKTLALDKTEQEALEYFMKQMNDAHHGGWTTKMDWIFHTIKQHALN
T1 sequence (P27986 whole entry partner): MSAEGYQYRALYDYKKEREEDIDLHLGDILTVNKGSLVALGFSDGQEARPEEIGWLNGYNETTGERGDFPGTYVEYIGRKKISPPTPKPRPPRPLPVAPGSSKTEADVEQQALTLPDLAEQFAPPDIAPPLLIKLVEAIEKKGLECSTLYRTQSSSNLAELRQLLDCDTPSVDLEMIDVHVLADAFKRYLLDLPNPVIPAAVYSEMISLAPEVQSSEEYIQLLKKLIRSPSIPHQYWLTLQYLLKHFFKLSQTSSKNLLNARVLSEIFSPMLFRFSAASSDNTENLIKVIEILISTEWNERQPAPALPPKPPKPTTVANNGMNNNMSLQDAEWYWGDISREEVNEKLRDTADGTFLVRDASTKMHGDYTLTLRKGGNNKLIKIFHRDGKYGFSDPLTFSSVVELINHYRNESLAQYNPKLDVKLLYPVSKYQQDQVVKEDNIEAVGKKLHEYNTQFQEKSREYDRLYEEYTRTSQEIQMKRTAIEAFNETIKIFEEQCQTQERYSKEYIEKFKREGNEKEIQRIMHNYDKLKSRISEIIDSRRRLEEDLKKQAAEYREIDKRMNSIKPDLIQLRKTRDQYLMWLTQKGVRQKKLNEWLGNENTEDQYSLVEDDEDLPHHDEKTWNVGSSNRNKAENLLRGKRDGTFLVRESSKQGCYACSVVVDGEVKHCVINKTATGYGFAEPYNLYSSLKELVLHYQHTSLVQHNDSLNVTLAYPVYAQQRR

| SMILES | IC50 (PI3K (p110α/p85α); [2]) [µM] | IC50 (PI3K (p110α/p85α); [3]) [µM] | further results |
| --- | --- | --- | --- |
| CCOC(=O)N1CCc2nc3c(N4CCOCC4)nc(-c4cccc(O)c4)cn3c2C1 [2-01, 3-(3-Hydroxy-phenyl)-1-morpholin-4-yl-7,8-dihydro-5H-2,4-a,6,9-tetraaza-fluorene-6-carboxylic acid ethyl ester] | 0.207 |  |  |
| Oc1cccc(-c2cn3c4c(nc3c(N3CCOCC3)n2)CCNC4)c1 [2-02] | 0.185 |  |  |
| CCOC(=O)N1CCc2nc3c(N4CCOCC4)nc(-c4cccc5[nH]ncc45)cn3c2C1 [2-03, 3-(1H-Indazol-4-yl)-1-morpholin-4-yl-7,8-dihydro-5H-2,4-a,6,9-tetraaza-fluorene-6-carboxylic acid ethyl ester] |  | > 1 |  |
| c1cncc(CN2CCc3nc4c(N5CCOCC5)nc(-c5cccc6[nH]ncc56)cn4c3C2)c1 [2-05] |  | > 1 |  |
| c1cc(-c2cn3c4c(nc3c(N3CCOCC3)n2)CCN(Cc2nccs2)C4)c2cn[nH]c2c1 [2-06] |  | > 1 |  |
| c1cc(-c2cn3c4c(nc3c(N3CCOCC3)n2)CCN(Cc2ccncc2)C4)c2cn[nH]c2c1 [2-07] | 0.852 |  |  |
| c1ccc(CN2CCc3nc4c(N5CCOCC5)nc(-c5cccc6[nH]ncc56)cn4c3C2)nc1 [2-08] | 0.439 |  |  |
| c1cc(-c2cn3c4c(nc3c(N3CCOCC3)n2)CCN(CC2CCOCC2)C4)c2cn[nH]c2c1 [2-09] |  | > 1 |  |
| CS(=O)(=O)c1ccc(CN2CCc3nc4c(N5CCOCC5)nc(-c5cccc6[nH]ncc56)cn4c3C2)cc1 [2-10] |  | > 1 |  |
| c1coc(CN2CCc3nc4c(N5CCOCC5)nc(-c5cccc6[nH]ncc56)cn4c3C2)c1 [2-11] | 1.78 |  |  |
| c1cc(-c2cn3c4c(nc3c(N3CCOCC3)n2)CCN(Cc2ccoc2)C4)c2cn[nH]c2c1 [2-12] | 0.708 |  |  |
| c1cc(-c2cn3c4c(nc3c(N3CCOCC3)n2)CCN(Cc2ncc[nH]2)C4)c2cn[nH]c2c1 [2-13] |  | > 1 |  |
| c1cc(-c2cn3c4c(nc3c(N3CCOCC3)n2)CCN(CC2CNC2)C4)c2cn[nH]c2c1 [2-14] |  | > 1 |  |
| CS(=O)(=O)c1cccc(CN2CCc3nc4c(N5CCOCC5)nc(-c5cccc6[nH]ncc56)cn4c3C2)c1 [2-15] | 3.33 |  |  |
| CCOC(=O)N1CCc2nc3c(N4CCOCC4)nc(-c4cnc(OC)nc4)cn3c2C1 [2-19] | 0.724 |  |  |
| CCNC(=O)N1CCc2nc3c(N4CCOCC4)nc(-c4cnc(N)nc4)cn3c2C1 [2-38] |  |  | IC50 [1]: 1.23 µM |

The next lines start with results.

| IC50 (PI3K (p110α/p85α); [2]) [µM] | IC50 (PI3K (p110α/p85α); [3]) [µM] | SMILES | further results |
| --- | --- | --- | --- |
| 1.05 |  | CCOC(=O)N1CCc2nc3c(N4CCOCC4)nc(-c4cnc5[nH]ccc5c4)cn3c2C1 [2-20] |  |
|  | > 1 | CCOC(=O)N1CCc2nc3c(N4CCOCC4)nc(-c4ccc(N)nc4)cn3c2C1 [2-21] |  |
|  | > 1 | CCOC(=O)N1CCc2nc3c(N4CCOCC4)nc(-c4ccc5[nH]ccc5c4)cn3c2C1 [2-22] |  |
| 2.7 |  | CCOC(=O)N1CCc2nc3c(N4CCOCC4)nc(-c4cncc(OC)c4)cn3c2C1 [2-23] |  |
|  | > 1 | CCOC(=O)N1CCc2nc3c(N4CCOCC4)nc(-c4cccnc4)cn3c2C1 [2-24] |  |
|  | > 1 | CCOC(=O)N1CCc2nc3c(N4CCOCC4)nc(-c4cnc(N)c(C(F)(F)F)c4)cn3c2C1 [2-25] |  |
|  | > 1 | CCOC(=O)N1CCc2nc3c(N4CCOCC4)nc(-c4c(F)ccc5[nH]ccc45)cn3c2C1 [2-26] |  |
| 0.603 |  | CCOC(=O)N1CCc2nc3c(N4CCOCC4)nc(-c4cnc(OC)nc4)c(Cl)n3c2C1 [2-27] |  |
| 1.07 |  | CCOC(=O)N1CCc2nc3c(N4CCOCC4)nc(-c4cnc5[nH]ccc5c4)c(Cl)n3c2C1 [2-28] |  |
|  | > 1 | CCOC(=O)N1CCc2nc3c(N4CCOCC4)nc(-c4ccc5[nH]ccc5c4)c(Cl)n3c2C1 [2-29] |  |
|  | > 1 | CCOC(=O)N1CCc2nc3c(N4CCOCC4)nc(-c4cncc(OC)c4)c(Cl)n3c2C1 [2-30] |  |
|  | > 1 | CCOC(=O)N1CCc2nc3c(N4CCOCC4)nc(-c4cccnc4)c(Cl)n3c2C1 [2-31] |  |
| 1.78 |  | CCOC(=O)N1CCc2nc3c(N4CCOCC4)nc(-c4cnc(N)c(C(F)(F)F)c4)c(Cl)n3c2C1 [2-33] |  |
| 0.692 |  | CC(C)CN1CCc2nc3c(N4CCOCC4)nc(-c4cnc(N)nc4)cn3c2C1 [2-35] |  |
|  | > 1 | Nc1ncc(-c2cn3c4c(nc3c(N3CCOCC3)n2)CCN(CC2CCOCC2)C4)cn1 [2-36] |  |
| 0.363 |  | Nc1ncc(-c2cn3c4c(nc3c(N3CCOCC3)n2)CCN(CC2CCCCC2)C4)cn1 [2-37] |  |
|  | > 1 | CCOC(=O)C1CCC(N2CCc3nc4c(N5CCOCC5)nc(-c5cnc(N)nc5)cn4c3C2)CC1 (stereo not shown) [2-40] |  |
|  | > 1 | CCOC(=O)N1CCc2nc3c(N4CCOCC4)nc(-c4cncnc4)cn3c2C1 [2-41] |  |
